Data: ChEMBL document CHEMBL1201862, “PubChem BioAssay data set” (2004)
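Where inhibition never reached the appropriate level, the endpoint shown equals the highest concentration tested. Otherwise, values were interpolated linearly from a five-concentration, 48-hour dose response in 96-well plates. Here, GI50 denotes the concentration required for 50% inhibition of growth.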 Calls of active or inactive are those of the source. No stated cut-off is given here; in the data, active = GI50 up to about 1.1 µM and inactive = higher.

Key:
Experiment in all cases: DTP human tumour cell line panel, 48 h
786-0 = system: 786-0
A498 = system: A498
A549 = system: A549
ACHN = system: ACHN
BT-549 = system: BT-549
CAKI-1 = system: CAKI-1
CCRF-CEM = system: CCRF-CEM
COLO 205 = system: COLO 205
DU-145 = system: DU-145
EKVX = system: EKVX
HCC 2998 = system: HCC 2998
HCT-116 = system: HCT-116
HCT-15 = system: HCT-15
HL-60 = system: HL-60
HOP-62 = system: HOP-62
HT-29 = system: HT-29
Hs-578T = system: Hs-578T
IGROV-1 = system: IGROV-1
K562 = system: K562
KM12 = system: KM12
LOX IMVI = system: LOX IMVI
M14 = system: M14
MCF7 = system: MCF7
MDA-MB-231 = system: MDA-MB-231
MDA-MB-435 = system: MDA-MB-435
MDA-N = system: MDA-N
MOLT-4 = system: MOLT-4
Malme-3M = system: Malme-3M
NCI-H226 = system: NCI-H226
NCI-H23 = system: NCI-H23
NCI-H460 = system: NCI-H460
NCI-H522 = system: NCI-H522
NCI/ADR-RES = system: NCI/ADR-RES
OVCAR-3 = system: OVCAR-3
OVCAR-4 = system: OVCAR-4
OVCAR-5 = system: OVCAR-5
OVCAR-8 = system: OVCAR-8
PC-3 = system: PC-3
RPMI-8226 = system: RPMI-8226
SF-268 = system: SF-268
SF-295 = system: SF-295
SF-539 = system: SF-539
SK-MEL-28 = system: SK-MEL-28
SK-MEL-2 = system: SK-MEL-2
SK-MEL-5 = system: SK-MEL-5
SK-OV-3 = system: SK-OV-3
SN12C = system: SN12C
SNB-19 = system: SNB-19
SNB-75 = system: SNB-75
SR = system: SR
SW-620 = system: SW-620
T47D = system: T47D
TK-10 = system: TK-10
U-251 = system: U-251
UACC-62 = system: UACC-62
UO-31 = system: UO-31
HOP-92 = system: HOP-92
UACC-257 = system: UACC-257

Measured: GI50

C=C(C)c1cc(C(C)(C)C)cc(C(=C)C)c1S(C)(=O)=O
inactive: 786-0 > 100 µM | A498 > 100 µM | A549 > 100 µM | ACHN > 100 µM | BT-549 > 100 µM | CAKI-1 > 100 µM | CCRF-CEM > 100 µM | DU-145 > 100 µM | EKVX > 100 µM | HCC 2998 > 100 µM | HCT-116 > 100 µM | HL-60 > 100 µM | HOP-62 > 100 µM | HT-29 > 100 µM | Hs-578T > 100 µM | IGROV-1 > 100 µM | K562 > 100 µM | KM12 > 100 µM | LOX IMVI > 100 µM | M14 > 100 µM | MCF7 > 100 µM | MDA-MB-231 3.91 µM | MDA-MB-435 > 100 µM | MDA-N > 100 µM | MOLT-4 > 100 µM | Malme-3M > 100 µM | NCI-H226 > 100 µM | NCI-H23 > 100 µM | NCI-H460 > 100 µM | NCI-H522 > 100 µM | NCI/ADR-RES > 100 µM | OVCAR-3 > 100 µM | OVCAR-4 > 100 µM | OVCAR-5 > 100 µM | OVCAR-8 > 100 µM | PC-3 > 100 µM | RPMI-8226 > 100 µM | SF-268 > 100 µM | SF-295 > 100 µM | SF-539 > 100 µM | SK-MEL-28 > 100 µM | SK-MEL-2 > 100 µM | SK-MEL-5 > 100 µM | SK-OV-3 > 100 µM | SN12C > 100 µM | SNB-19 > 100 µM | SNB-75 > 100 µM | SR > 100 µM | SW-620 > 100 µM | T47D 10.7 µM | TK-10 > 100 µM | U-251 > 100 µM | UACC-62 > 100 µM | UO-31 > 100 µM
> 100 µM: HCT-15
active: COLO 205 0.596 µM

C=COC(=O)N1C2CCCC(Cl)(C(C)=O)C1CC2 (centres undefined)
inactive: 786-0 > 100 µM | A498 > 100 µM | A549 > 100 µM | ACHN > 100 µM | BT-549 > 100 µM | CAKI-1 > 100 µM | CCRF-CEM 13.4 µM | COLO 205 > 100 µM | DU-145 > 100 µM | EKVX > 100 µM | HCC 2998 > 100 µM | HCT-116 > 100 µM | HOP-62 > 100 µM | HOP-92 > 100 µM | HT-29 > 100 µM | Hs-578T > 100 µM | IGROV-1 > 100 µM | K562 > 100 µM | KM12 > 100 µM | LOX IMVI > 100 µM | M14 > 100 µM | MCF7 > 100 µM | MDA-MB-231 > 100 µM | MDA-MB-435 58.9 µM | MDA-N 79.1 µM | MOLT-4 > 100 µM | Malme-3M 87.5 µM | NCI-H226 > 100 µM | NCI-H23 > 100 µM | NCI-H460 > 100 µM | NCI-H522 > 100 µM | NCI/ADR-RES > 100 µM | OVCAR-3 > 100 µM | OVCAR-4 > 100 µM | OVCAR-5 > 100 µM | OVCAR-8 > 100 µM | PC-3 > 100 µM | RPMI-8226 > 100 µM | SF-268 66.1 µM | SF-295 > 100 µM | SK-MEL-28 > 100 µM | SK-MEL-2 > 100 µM | SK-MEL-5 > 100 µM | SK-OV-3 > 100 µM | SN12C > 100 µM | SNB-19 > 100 µM | SNB-75 28.2 µM | SR > 100 µM | SW-620 > 100 µM | T47D > 100 µM | TK-10 > 100 µM | U-251 > 100 µM | UACC-257 > 100 µM | UACC-62 > 100 µM | UO-31 > 100 µM
> 100 µM: HCT-15

O=C1c2cc(O)c(O)cc2O[C@H](c2ccc(O)c(O)c2)[C@H]1O
inactive: 786-0 > 100 µM | A498 > 100 µM | A549 > 100 µM | ACHN > 100 µM | BT-549 > 100 µM | CAKI-1 > 100 µM | CCRF-CEM 68.4 µM | COLO 205 > 100 µM | DU-145 > 100 µM | EKVX > 100 µM | HCC 2998 > 100 µM | HCT-116 > 100 µM | HL-60 > 100 µM | HOP-62 80.7 µM | HOP-92 > 100 µM | HT-29 > 100 µM | Hs-578T > 100 µM | IGROV-1 > 100 µM | K562 > 100 µM | KM12 > 100 µM | LOX IMVI > 100 µM | M14 > 100 µM | MCF7 > 100 µM | MDA-MB-231 > 100 µM | MDA-MB-435 > 100 µM | MDA-N > 100 µM | MOLT-4 > 100 µM | NCI-H226 85.1 µM | NCI-H23 45.4 µM | NCI-H460 49.7 µM | NCI-H522 > 100 µM | NCI/ADR-RES > 100 µM | OVCAR-3 > 100 µM | OVCAR-5 > 100 µM | OVCAR-8 > 100 µM | PC-3 > 100 µM | RPMI-8226 > 100 µM | SF-268 > 100 µM | SF-295 > 100 µM | SF-539 > 100 µM | SK-MEL-28 > 100 µM | SK-MEL-2 > 100 µM | SK-MEL-5 > 100 µM | SK-OV-3 > 100 µM | SN12C > 100 µM | SNB-19 > 100 µM | SNB-75 > 100 µM | SR > 100 µM | SW-620 > 100 µM | T47D > 100 µM | TK-10 > 100 µM | U-251 > 100 µM | UACC-257 98.9 µM | UACC-62 > 100 µM | UO-31 > 100 µM
> 100 µM: HCT-15

COc1ccc(N2C(=O)C3c4[nH]c5c(C)cccc5c4C4CCC(C(C)C)CC4C3C2=O)cc1 (centres undefined)
inactive: 786-0 4.38 µM | A498 14 µM | A549 5.41 µM | ACHN 13.7 µM | BT-549 28.6 µM | CAKI-1 15 µM | COLO 205 12.4 µM | DU-145 12.2 µM | EKVX 16.7 µM | HCC 2998 10.3 µM | HCT-116 9.73 µM | HOP-62 10 µM | HOP-92 12.1 µM | HT-29 3.37 µM | Hs-578T 8.09 µM | IGROV-1 8.99 µM | K562 2.01 µM | KM12 6.75 µM | LOX IMVI 3.59 µM | M14 9.53 µM | MCF7 5.02 µM | MDA-MB-231 5.96 µM | MDA-MB-435 7.03 µM | MDA-N 10.3 µM | MOLT-4 2.12 µM | Malme-3M 13.4 µM | NCI-H226 13.9 µM | NCI-H23 17.3 µM | NCI-H460 7.94 µM | NCI-H522 4.51 µM | NCI/ADR-RES 16.1 µM | OVCAR-3 13.9 µM | OVCAR-4 14 µM | OVCAR-5 14 µM | OVCAR-8 12.1 µM | PC-3 8.87 µM | RPMI-8226 1.88 µM | SF-268 6.01 µM | SF-295 14.7 µM | SK-MEL-28 13 µM | SK-MEL-2 16.7 µM | SK-MEL-5 12 µM | SK-OV-3 16.4 µM | SN12C 8.3 µM | SNB-19 22.1 µM | SNB-75 4.06 µM | SR 4.68 µM | SW-620 11 µM | T47D 5.96 µM | TK-10 24.4 µM | U-251 10 µM | UACC-257 31 µM | UACC-62 > 10 µM | UO-31 11.8 µM
10 µM: HCT-15

O=S1(=O)N=C(SCc2c[nH]c3ccccc23)N(c2ccccc2)c2ccncc21
> 100 µM: HCT-15
inactive: 786-0 25.1 µM | A498 27 µM | A549 > 100 µM | ACHN 65.3 µM | BT-549 59 µM | CAKI-1 67.5 µM | CCRF-CEM 41.4 µM | COLO 205 > 100 µM | DU-145 35.2 µM | EKVX > 100 µM | HCC 2998 > 100 µM | HCT-116 > 100 µM | HL-60 > 100 µM | HOP-62 > 100 µM | HOP-92 53.7 µM | HT-29 > 100 µM | Hs-578T > 100 µM | K562 > 100 µM | KM12 > 100 µM | LOX IMVI 35.4 µM | M14 > 100 µM | MCF7 42.5 µM | MDA-MB-231 > 100 µM | MDA-MB-435 > 100 µM | MDA-N > 100 µM | MOLT-4 46.7 µM | Malme-3M > 100 µM | NCI-H226 97.7 µM | NCI-H23 > 100 µM | NCI-H460 > 100 µM | NCI-H522 37.5 µM | NCI/ADR-RES > 100 µM | OVCAR-3 > 100 µM | OVCAR-4 > 100 µM | OVCAR-5 94.2 µM | OVCAR-8 > 100 µM | PC-3 66.7 µM | SF-268 50.9 µM | SF-295 > 100 µM | SF-539 22.8 µM | SK-MEL-28 > 100 µM | SK-MEL-2 > 100 µM | SK-MEL-5 > 100 µM | SK-OV-3 > 100 µM | SN12C 74.6 µM | SNB-19 > 100 µM | SNB-75 21.5 µM | SR 34.2 µM | SW-620 > 100 µM | T47D 21.3 µM | TK-10 35.6 µM | U-251 87.5 µM | UACC-257 > 100 µM | UACC-62 > 100 µM | UO-31 18.5 µM
